Experimental data published in ChEMBL document CHEMBL1201862, “PubChem BioAssay data set” (2004).
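Growth conditions: 96-well plates. Treatment: test compound, 48 hours, 5 concentrations. Analysis: linear interpolation between bracketing concentrations; unreached endpoints set to highest concentration. GI50: concentration for 50% inhibition of growth.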 Active and inactive are the calls of the source. Rule as the data show it: active = GI50 up to about 1.1 µM and inactive = higher.

Legend:
Assay in all cases: growth of human tumour cells (NCI), 48 h
[1] = system: UO-31
[2] = system: OVCAR-3
[3] = system: HOP-62
[4] = system: OVCAR-5
[5] = system: ACHN
[6] = system: COLO 205
[7] = system: SF-295
[8] = system: HCC 2998
[9] = system: SW-620
[10] = system: SF-539
[11] = system: M14
[12] = system: SNB-19
[13] = system: HL-60
[14] = system: SNB-75
[15] = system: U-251
[16] = system: SK-MEL-28
[17] = system: UACC-62
[18] = system: TK-10
[19] = system: SR

Measured: GI50

Cn1c(=O)c(/N=N/c2c(=O)n(C)c(=O)n3c2[nH]c2ccccc23)c2[nH]c3ccccc3n2c1=O
inactive: [1] 87.3 µM | [2] > 100 µM | [3] 57.1 µM | [4] > 100 µM | [5] 80.9 µM | [6] > 100 µM | [7] 12.4 µM | [8] > 100 µM | [9] > 100 µM | [10] 57.4 µM | [11] > 100 µM | [12] 13.2 µM | [13] > 100 µM | [14] 29.1 µM | [15] 22.4 µM | [16] > 100 µM | [17] > 100 µM | [18] 50.8 µM

CCOc1cc(-c2nc3cc(F)ccc3s2)ccc1O
inactive: [1] 12.9 µM | [2] 18.5 µM | [4] 18.7 µM | [5] 16 µM | [6] 19.7 µM | [7] 20 µM | [8] 26 µM | [9] 19.4 µM | [10] 18.8 µM | [11] 17.2 µM | [12] 16.5 µM | [15] 19.5 µM | [16] 27.6 µM | [17] 16.6 µM | [18] 18.7 µM

COC(=O)[C@H](CCSC)NC(=O)c1ccc(CNC(=O)/C(C)=C/c2ccccc2)cc1
inactive: [1] 43.5 µM | [2] 60.8 µM | [3] 21.8 µM | [4] 97.1 µM | [5] 44.3 µM | [6] > 100 µM | [7] 48.5 µM | [8] 9.48 µM | [19] 92.7 µM | [9] 47 µM | [10] 26.5 µM | [11] 30.8 µM | [12] 24.7 µM | [14] 3.81 µM | [15] 31 µM | [16] 24.7 µM | [17] 32.3 µM | [18] > 100 µM

NCCCNCc1c2ccccc2c(CNCCCN)c2ccccc12
inactive: [1] 37.8 µM | [2] 28.3 µM | [3] 22.9 µM | [4] 21.3 µM | [5] 26.7 µM | [6] 7.66 µM | [7] 22.3 µM | [8] 17 µM | [9] 6.84 µM | [10] 14.6 µM | [11] > 10 µM | [12] 33.2 µM | [13] 14.4 µM | [14] 19.8 µM | [15] 33.4 µM | [16] > 10 µM | [17] 36.1 µM | [18] 32.5 µM

CCOC(=O)CCC(NC(=O)c1ccc(NCc2ccc3nc(-c4ccccc4)c(Cl)nc3c2)c2ccccc12)C(=O)OCC (centres undefined)
inactive: [1] > 100 µM | [2] > 100 µM | [3] > 100 µM | [4] > 100 µM | [5] > 100 µM | [6] > 100 µM | [7] > 100 µM | [8] > 100 µM | [9] > 100 µM | [10] > 100 µM | [11] > 100 µM | [12] > 100 µM | [14] > 100 µM | [15] > 100 µM | [16] > 100 µM | [17] > 100 µM | [18] > 100 µM

Cc1ccc(S(=O)(=O)NC(=O)NCCc2ccccc2)cc1
inactive: [1] 51.8 µM | [2] > 100 µM | [3] > 100 µM | [4] > 100 µM | [5] > 100 µM | [6] > 100 µM | [7] > 100 µM | [8] > 100 µM | [9] > 100 µM | [10] > 100 µM | [11] > 100 µM | [12] > 100 µM | [13] 74.1 µM | [14] 68.2 µM | [15] > 100 µM | [16] > 100 µM | [17] > 100 µM | [18] > 100 µM

CCCCCCCCCCCCCCCC(=O)OCC1OC(n2cc(F)c(=O)[nH]c2=O)C(N)C(O)C1O (centres undefined)
inactive: [1] 15.6 µM | [2] 2.19 µM | [3] 19.7 µM | [4] 27 µM | [5] 18.8 µM | [6] 18.5 µM | [7] 17.1 µM | [8] 14.5 µM | [9] 16.7 µM | [10] 19.4 µM | [11] 17.8 µM | [12] 22.2 µM | [13] 19.5 µM | [14] 19.2 µM | [15] 18.5 µM | [16] 16.9 µM | [17] 16.2 µM | [18] 21.9 µM

O=C(O)c1cccc(SSc2cccc(C(=O)O)c2)c1
inactive: [1] > 100 µM | [2] > 100 µM | [3] > 100 µM | [4] > 100 µM | [5] > 100 µM | [6] > 100 µM | [7] > 100 µM | [19] > 100 µM | [9] > 100 µM | [10] > 100 µM | [11] > 100 µM | [12] > 100 µM | [13] > 100 µM | [14] > 100 µM | [15] > 100 µM | [16] > 100 µM | [17] > 100 µM | [18] > 100 µM

CCN1C[C@]2(C)CC[C@H](O)C34C1C(C[C@@H]32)[C@@]1(O)CC[C@H]2C[C@@H]4[C@@H]1[C@H]2O
inactive: [1] > 100 µM | [2] > 100 µM | [3] > 100 µM | [4] > 100 µM | [5] > 100 µM | [6] > 100 µM | [7] > 100 µM | [19] > 100 µM | [9] > 100 µM | [10] > 100 µM | [11] > 100 µM | [12] > 100 µM | [13] > 100 µM | [14] > 100 µM | [15] > 100 µM | [16] > 100 µM | [17] > 100 µM | [18] > 100 µM

Nc1cc(N2CCCC2)nc(=O)n1Cc1ccccc1
inactive: [3] > 100 µM | [4] > 100 µM | [5] > 100 µM | [6] > 100 µM | [7] > 100 µM | [19] > 100 µM | [9] > 100 µM | [10] > 100 µM | [11] > 100 µM | [12] > 100 µM | [13] > 100 µM | [14] > 100 µM | [15] > 100 µM | [18] > 100 µM

Cc1ccc(NC(=O)c2cc3cc(/N=N/c4ccccc4C(=O)O)ccc3oc2=O)cc1
inactive: [1] 30.1 µM | [2] 25.2 µM | [3] > 100 µM | [5] 53.2 µM | [6] 35.3 µM | [7] 44.4 µM | [9] 47.5 µM | [10] 30.5 µM | [11] 55.3 µM | [12] 28.4 µM | [13] 26.7 µM | [14] 45.9 µM | [15] 43.2 µM | [16] 37.5 µM | [17] 24.6 µM | [18] 58.9 µM

COCCCNC(=O)C1C(=O)N(CCCOC)C(=O)/C1=N\N (centres undefined)
inactive: [1] > 100 µM | [2] > 100 µM | [3] > 100 µM | [4] > 100 µM | [5] > 100 µM | [6] > 100 µM | [7] > 100 µM | [8] > 100 µM | [9] > 100 µM | [10] > 100 µM | [11] > 100 µM | [12] > 100 µM | [13] > 100 µM | [14] 38.3 µM | [15] > 100 µM | [16] > 100 µM | [17] > 100 µM | [18] > 100 µM

O=C(CSc1nnc(-c2ccc(/N=C\c3ccc(Cl)cc3)cc2)o1)Nc1ccc(Cl)cc1Cl
inactive: [1] 33 µM | [3] 30.5 µM | [4] 94.4 µM | [5] 45.4 µM | [6] 30.7 µM | [7] 27.2 µM | [8] > 100 µM | [9] 40.2 µM | [10] 22.2 µM | [11] 16.4 µM | [12] 31 µM | [13] 33.9 µM | [14] 22.7 µM | [15] 25.2 µM | [16] 28 µM | [17] 28.7 µM | [18] > 100 µM

Brc1ccccc1C1SCc2nc3ccccc3n21 (centres undefined)
inactive: [1] 10.4 µM | [2] 13.5 µM | [3] 19 µM | [4] 10.2 µM | [5] 16.4 µM | [6] 16.7 µM | [7] 23.8 µM | [19] 12.6 µM | [9] 32.3 µM | [10] 17.4 µM | [11] 17.2 µM | [13] 6.71 µM | [14] 21.7 µM | [15] 15.7 µM | [16] > 10 µM | [17] > 10 µM | [18] 20 µM

CC(O)C(C(=O)O)N(CC1(O)OCC(O)C(O)C1O)N=O (centres undefined)
inactive: [1] > 100 µM | [2] > 100 µM | [3] > 100 µM | [4] > 100 µM | [5] > 100 µM | [6] > 100 µM | [8] > 100 µM | [9] > 100 µM | [10] > 100 µM | [11] > 100 µM | [13] > 100 µM | [14] > 100 µM | [15] > 100 µM | [16] > 100 µM | [17] > 100 µM | [18] > 100 µM

CCCCCCCCC(=O)N(C)C1C2CN3CCC(O2)C13 (centres undefined)
inactive: [1] > 100 µM | [2] > 100 µM | [3] > 100 µM | [4] > 100 µM | [5] > 100 µM | [6] > 100 µM | [7] > 100 µM | [8] > 100 µM | [9] > 100 µM | [10] > 100 µM | [11] > 100 µM | [12] > 100 µM | [13] > 100 µM | [14] 75.7 µM | [15] > 100 µM | [16] > 100 µM | [17] > 100 µM | [18] > 100 µM
